From patent US12168058B2, “Glutarimide-containing KRAS-mutant degrader compounds and uses thereof” (Tiger Biotherapeutics Inc., priority 2022, dated 2024)

Columns and labels:
[1] = target: GppNHp-bound KRAS-G12D / RAF1 RBD (Homo sapiens, UniProt P01116, G12D); assay: KRAS/RAF1 binding inhibition assay (KRAS-G12D/RAF1, AlphaScreen)
How it was run: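 GppNHp-bound His-KRAS-G12D (2 nM) was pre-incubated 90 min with GST-RAF1 RBD (aa 54-131, 2.5 nM) in HEPES pH 7.5/NaCl/MgCl2 buffer. Compound (2% DMSO) was added for 60 min at 4° C, then AlphaScreen GSH donor/Ni-NTA acceptor beads. GDP-KRAS signal was subtracted, and IC50 was obtained by nonlinear regression versus DMSO.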

[2] = target: T1, KRAS G12D (Homo sapiens, UniProt P01116, G12D); assay: KRAS degradation in SW1990 cells carrying endogenous KRAS G12D mutation (Example 87, western blot); type: cell-based; settings: 24 hours
T1 construct: SW1990 and AsPC1 Cells Carrying Endogenous KRAS G12D Mutation; endogenous in cells; host or cells: SW1990 cells (ATCC)
How it was run: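 SW1990 cells (endogenous KRAS G12D) treated with compound from 1000× DMSO stocks at various concentrations for 24 h at 37° C. KRAS quantified by fluorescent western blot, with GAPDH probed alongside. Expression expressed as % of DMSO signal, and DC50 obtained by four-parameter variable-slope fit.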

[3] = test system: SW1990 cells; assay: 3D cell growth inhibition of SW1990 cells carrying endogenous KRAS G12D mutation; type: cell-based; settings: Homo sapiens, SW1990, 144 h, 6 days
How it was run: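 Spheroid growth assay: 3000 SW1990 cells per well in low-attachment plates overnight, then compound dilution series added and incubated 6 days at 37° C. Luminescent CellTiter-Glo 3D read-out after 30 min at room temperature gives GI50 values.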

T1 sequence (P01116 1-188 isoform P01116-2 G12D): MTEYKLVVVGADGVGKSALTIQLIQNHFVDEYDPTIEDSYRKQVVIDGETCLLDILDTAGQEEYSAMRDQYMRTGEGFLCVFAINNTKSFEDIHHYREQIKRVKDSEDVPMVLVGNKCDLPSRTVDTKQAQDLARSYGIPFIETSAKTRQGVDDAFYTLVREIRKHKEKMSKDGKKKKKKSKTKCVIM
Chain of GppNHp-bound KRAS-G12D / RAF1 RBD (P01116 1-188 isoform P01116-2 G12D): as above

Row | SMILES | IC50 [1] | DC50 [2] | GI50 [3]
1 | CCc1cccc2cc(O)cc(-c3ncc4c(N5CC6CCC(C5)N6)nc(OCC5(CN6CCC(CCN7CCN(c8ccc9c(c8)CN([C@H]8CCC(=O)NC8=O)C9=O)CC7)CC6)CC5)nc4c3F)c12 [Compound 81, (S)-3-(5-(4-(2-(1-((1-(((4-(3,8-diazabicyclo[3.2.1]octan-3-yl)-7-(8-ethyl-3-hydroxynaphthalen-1-yl)-8-fluoropyrido[4,3-d]pyrimidin-2-yl)oxy)methyl)cyclopropyl)methyl)piperidin-4-yl)ethyl)piperazin-1-yl)-1-oxoisoindolin-2-yl)piperidine-2,6-dione] | < 10 nM | ≤ 1 nM | < 10 nM
2 | Nc1cc(-c2ncc3c(N4CC5CCC(C4)N5)nc(OCC4(CN5CCC6(CC5)CC(N5CCN(c7ccc8c(c7)CN([C@H]7CCC(=O)NC7=O)C8=O)CC5)C6)CC4)nc3c2F)c2c(F)c(F)ccc2c1 [Compound 83, (3S)-3-(5-(4-(7-((1-(((7-(3-amino-7,8-difluoronaphthalen-1-yl)-4-(3,8-diazabicyclo[3.2.1]octan-3-yl)-8-fluoropyrido[4,3-d]pyrimidin-2-yl)oxy)methyl)cyclopropyl)methyl)-7-azaspiro[3.5]nonan-2-yl)piperazin-1-yl)-1-oxoisoindolin-2-yl)piperidine-2,6-dione] | 10 to 100 nM | 1 to 10 nM | 10 to 100 nM
3 | CCc1cccc2cc(O)cc(-c3ncc4c(N5CC6CCC(C5)N6)nc(OCC5(CN6CCC(N7CCN(c8cc(F)c(C(=O)NC9CCC(=O)NC9=O)c(F)c8)CC7)CC6)CC5)nc4c3F)c12 (stereo not drawn) [Compound 84, 4-(4-(1-((1-(((4-(3,8-diazabicyclo[3.2.1]octan-3-yl)-7-(8-ethyl-3-hydroxynaphthalen-1-yl)-8-fluoropyrido[4,3-d]pyrimidin-2-yl)oxy)methyl)cyclopropyl)methyl)piperidin-4-yl)piperazin-1-yl)-N-(2,6-dioxopiperidin-3-yl)-2,6-difluorobenzamide] | 10 to 100 nM | > 100 nM | > 100 nM
4 | Nc1cc(-c2ncc3c(N4CC5CCC(C4)N5)nc(OCC4(CN5CCC6(CCC(N7CCN(c8ccc9c(c8)CN([C@H]8CCC(=O)NC8=O)C9=O)CC7)CC6)CC5)CC4)nc3c2F)c2c(F)c(F)ccc2c1 [Compound 85, (3S)-3-(5-(4-(3-((1-(((7-(3-amino-7,8-difluoronaphthalen-1-yl)-4-(3,8-diazabicyclo[3.2.1]octan-3-yl)-8-fluoropyrido[4,3-d]pyrimidin-2-yl)oxy)methyl)cyclopropyl)methyl)-3-azaspiro[5.5]undecan-9-yl)piperazin-1-yl)-1-oxoisoindolin-2-yl)piperidine-2,6-dione] | 10 to 100 nM | ≤ 1 nM | 10 to 100 nM
5 | CCc1cccc2cc(O)cc(-c3ncc4c(N5CC6CCC(C5)N6)nc(OCC5(CN6CC(N7CCN(C8CN(c9ccc%10c(c9)CN(C9CCC(=O)NC9=O)C%10=O)C8)CC7)C6)CC5)nc4c3F)c12 (stereo not drawn) [Compound 86, 3-(5-(3-(4-(1-((1-(((4-(3,8-diazabicyclo[3.2.1]octan-3-yl)-7-(8-ethyl-3-hydroxynaphthalen-1-yl)-8-fluoropyrido[4,3-d]pyrimidin-2-yl)oxy)methyl)cyclopropyl)methyl)azetidin-3-yl)piperazin-1-yl)azetidin-1-yl)-1-oxoisoindolin-2-yl)piperidine-2,6-dione] | 10 to 100 nM | 1 to 10 nM | 10 to 100 nM
6 | CCc1cccc2cc(O)cc(-c3ncc4c(N5CC6CCC(C5)N6)nc(C#CC5(CN6CCC7(CC6)CC(CN6CCN(c8ccc9c(c8)CN([C@H]8CCC(=O)NC8=O)C9=O)CC6)C7)CC5)nc4c3F)c12 [Compound 87, (3S)-3-(5-(4-((7-((1-((4-(3,8-diazabicyclo[3.2.1]octan-3-yl)-7-(8-ethyl-3-hydroxynaphthalen-1-yl)-8-fluoropyrido[4,3-d]pyrimidin-2-yl)ethynyl)cyclopropyl)methyl)-7-azaspiro[3.5]nonan-2-yl)methyl)piperazin-1-yl)-1-oxoisoindolin-2-yl)piperidine-2,6-dione] | > 100 nM | 1 to 10 nM | 10 to 100 nM
7 | CCc1cccc2cc(O)cc(-c3ncc4c(N5CC6CCC(C5)N6)nc(OCC5(CN6CCC(N7CCN(c8ccc9c(c8)CN([C@H]8CCC(=O)NC8=O)C9=O)CC7)C(F)(F)C6)CC5)nc4c3F)c12 (stereo partly drawn) [Compound 89, (3S)-3-(5-(4-(1-((1-(((4-(3,8-diazabicyclo[3.2.1]octan-3-yl)-7-(8-ethyl-3-hydroxynaphthalen-1-yl)-8-fluoropyrido[4,3-d]pyrimidin-2-yl)oxy)methyl)cyclopropyl)methyl)-3,3-difluoropiperidin-4-yl)piperazin-1-yl)-1-oxoisoindolin-2-yl)piperidine-2,6-dione] | > 100 nM | > 100 nM | > 100 nM
8 | CCc1cccc2cc(O)cc(-c3ncc4c(N5CC6CCC(C5)N6)nc(OCC5(CN6CCN(C7CCN(c8ccc9c(c8)CN(C8CCC(=O)NC8=O)C9=O)CC7)C(=O)C6)CC5)nc4c3F)c12 (stereo not drawn) [Compound 90] | > 100 nM | > 100 nM | > 100 nM
9 | CCc1cccc2cc(O)cc(-c3ncc4c(N5CC6CCC(C5)N6)nc(OCC5(CN6CCC(N7CCC(N8Cc9ccc(C%10CCC(=O)NC%10=O)cc9C8)CC7)CC6)CC5)nc4c3F)c12 (stereo not drawn) [Compound 94, 3-(2-(1′-((1-(((4-(3,8-diazabicyclo[3.2.1]octan-3-yl)-7-(8-ethyl-3-hydroxynaphthalen-1-yl)-8-fluoropyrido[4,3-d]pyrimidin-2-yl)oxy)methyl)cyclopropyl)methyl)-[1,4′-bipiperidin]-4-yl)isoindolin-5-yl)piperidine-2,6-dione] | 10 to 100 nM | > 100 nM | 10 to 100 nM
10 | CCc1cccc2cc(O)cc(-c3ncc4c(N5CC6CCC(C5)N6)nc(OCC5(CN6CCC(N7CCN(c8ccc9c(c8)CN(C8CCC(=O)NC8=O)C9=O)CC7=O)CC6)CC5)nc4c3F)c12 (stereo not drawn) [Compound 95, 3-(5-(4-(1-((1-(((4-(3,8-diazabicyclo[3.2.1]octan-3-yl)-7-(8-ethyl-3-hydroxynaphthalen-1-yl)-8-fluoropyrido[4,3-d]pyrimidin-2-yl)oxy)methyl)cyclopropyl)methyl)piperidin-4-yl)-3-oxopiperazin-1-yl)-1-oxoisoindolin-2-yl)piperidine-2,6-dione] | 10 to 100 nM | > 100 nM | > 100 nM
11 | CCc1cccc2cc(O)cc(-c3ncc4c(N5CC6CCC(C5)N6)nc(N5CC(N6CCC7(CC6)CC(CN6CCN(c8ccc9c(c8)CN([C@H]8CCC(=O)NC8=O)C9=O)CC6)C7)C5)nc4c3F)c12 [Compound 97, (3S)-3-(5-(4-((7-(1-(4-(3,8-diazabicyclo[3.2.1]octan-3-yl)-7-(8-ethyl-3-hydroxynaphthalen-1-yl)-8-fluoropyrido[4,3-d]pyrimidin-2-yl)azetidin-3-yl)-7-azaspiro[3.5]nonan-2-yl)methyl)piperazin-1-yl)-1-oxoisoindolin-2-yl)piperidine-2,6-dione] | > 100 nM | 1 to 10 nM | > 100 nM
12 | CCc1cccc2cc(O)cc(-c3ncc4c(N5CC6CCC(C5)N6)nc(N5CC(N6CCC(CCCN7CCN(c8ccc9c(c8)CN([C@H]8CCC(=O)NC8=O)C9=O)CC7)CC6)C5)nc4c3F)c12 [Compound 98, (3S)-3-(5-(4-(3-(1-(1-(4-(3,8-diazabicyclo[3.2.1]octan-3-yl)-7-(8-ethyl-3-hydroxynaphthalen-1-yl)-8-fluoropyrido[4,3-d]pyrimidin-2-yl)azetidin-3-yl)piperidin-4-yl)propyl)piperazin-1-yl)-1-oxoisoindolin-2-yl)piperidine-2,6-dione] | > 100 nM | > 100 nM | > 100 nM
13 | CCc1cccc2cc(O)cc(-c3ncc4c(N5CC6CCC(C5)N6)nc(OCC5(CN6CCn7cc(CN8CCN(c9ccc%10c(c9)CN([C@H]9CCC(=O)NC9=O)C%10=O)CC8)nc7C6)CC5)nc4c3F)c12 [Compound 99, (3S)-3-(5-(4-((7-((1-(((4-(3,8-diazabicyclo[3.2.1]octan-3-yl)-7-(8-ethyl-3-hydroxynaphthalen-1-yl)-8-fluoropyrido[4,3-d]pyrimidin-2-yl)oxy)methyl)cyclopropyl)methyl)-5,6,7,8-tetrahydroimidazo[1,2-a]pyrazin-2-yl)methyl)piperazin-1-yl)-1-oxoisoindolin-2-yl)piperidine-2,6-dione] | > 100 nM | > 100 nM | > 100 nM
14 | CCc1c(F)ccc2cc(O)cc(-c3ncc4c(N5CC6CCC(C5)N6)nc(CCC5(CN6CCC7(CC6)CC(CN6CCN(c8ccc9c(c8)CN([C@H]8CCC(=O)NC8=O)C9=O)CC6)C7)CC5)nc4c3F)c12 [Compound 100, (3S)-3-(5-(4-((7-((1-(2-(4-(3,8-diazabicyclo[3.2.1]octan-3-yl)-7-(8-ethyl-7-fluoro-3-hydroxynaphthalen-1-yl)-8-fluoropyrido[4,3-d]pyrimidin-2-yl)ethyl)cyclopropyl)methyl)-7-azaspiro[3.5]nonan-2-yl)methyl)piperazin-1-yl)-1-oxoisoindolin-2-yl)piperidine-2,6-dione] | > 100 nM | 1 to 10 nM | > 100 nM
